Measured values taken from US20050154046A1, “Methods of treating an inflammatory-related disease” (priority 2004, published 2005).

System: TNF-α mRNA
Test: TNF-α transcription (real time PCR) in LPS-stimulated THP-1 cells
Format: cell-based, human
Conditions: 4 μM, 24 h
Experimental: The effect of Meisoindigo on the transcription of TNF-α (RNA levels) was determined by a technique of real time PCR using the same procedures described in Example 2, except the specific primers for TNF-α were used as follows: 5′-[…], and 5′[…]. Total RNA was extracted using a Qiagen Rneasy minit kit, and the HPRT gene was used as internal control.
Human monocytic THP-1 cells grown exponentially were exposed to […] of LPS, 4 μM of Meisoindigo, or 1 μg/ml of LPS plus 4 μM of Meisoindigo for 24 hours. The cells were then harvested, washed and total RNA extracted for real time PCR assay as described in Example 2.

SMILES: CN1C(=O)/C(=C2/C(=O)Nc3ccccc32)c2ccccc21 [Meisoindigo]
- effect on TNF-α mRNA levels / transcription: No effect
